In the assay the target is T1, Klotho β (KLB) (Homo sapiens, UniProt Q86Z14).
T1 construct: expressed in transfected cells; host or cells: HEK 293T (ATCC), pooled Zeocin-selected cells stably expressing hKLB from pcDNA3.1(+)
T1 sequence (Q86Z14 1-1044): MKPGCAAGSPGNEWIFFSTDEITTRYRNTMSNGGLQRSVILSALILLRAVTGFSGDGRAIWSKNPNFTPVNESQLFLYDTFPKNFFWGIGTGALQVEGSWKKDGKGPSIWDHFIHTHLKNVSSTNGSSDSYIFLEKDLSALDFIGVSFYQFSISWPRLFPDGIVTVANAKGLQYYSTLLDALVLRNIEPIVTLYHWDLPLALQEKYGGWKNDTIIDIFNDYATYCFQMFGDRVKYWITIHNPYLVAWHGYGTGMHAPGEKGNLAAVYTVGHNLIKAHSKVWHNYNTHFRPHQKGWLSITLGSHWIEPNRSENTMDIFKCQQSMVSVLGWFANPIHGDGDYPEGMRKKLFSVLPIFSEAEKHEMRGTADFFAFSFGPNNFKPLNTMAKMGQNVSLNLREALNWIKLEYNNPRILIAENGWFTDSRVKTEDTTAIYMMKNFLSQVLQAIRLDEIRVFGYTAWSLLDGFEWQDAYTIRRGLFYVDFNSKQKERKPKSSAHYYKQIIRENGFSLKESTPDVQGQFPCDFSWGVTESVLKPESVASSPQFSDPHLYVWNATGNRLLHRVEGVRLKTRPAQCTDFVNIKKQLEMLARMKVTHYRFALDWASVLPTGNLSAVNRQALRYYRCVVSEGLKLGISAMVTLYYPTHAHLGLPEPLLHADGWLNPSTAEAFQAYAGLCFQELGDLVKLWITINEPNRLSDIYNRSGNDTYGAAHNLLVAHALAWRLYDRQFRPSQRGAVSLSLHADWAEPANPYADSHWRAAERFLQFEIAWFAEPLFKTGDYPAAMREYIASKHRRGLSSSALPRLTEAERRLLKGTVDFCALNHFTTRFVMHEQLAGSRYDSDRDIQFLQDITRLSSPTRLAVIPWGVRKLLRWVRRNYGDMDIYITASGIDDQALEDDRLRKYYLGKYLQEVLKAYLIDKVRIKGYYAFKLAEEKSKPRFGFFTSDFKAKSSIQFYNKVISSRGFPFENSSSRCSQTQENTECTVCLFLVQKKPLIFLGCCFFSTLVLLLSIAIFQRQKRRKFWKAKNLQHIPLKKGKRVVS
The experiment in a line: cell-based. As to conditions: for antagonism of FGF21 activity (in words): 10 nM FGF21 stimulation, 293 HEK hKLB cells; for Emax: Table 1, native sequence = 100% response, read-out: % max activity. The assay is classed as cell-based. As for the experimental part: Cells were cultured in 10% Fetal Bovine Serum containing DMEM High glucose GLUTAMAX® at 37 C, 95% humidity, 5% CO2. For generating the cell line with stable expression, human KLB gene was synthesized by Genscript and subcloned into pcDNA3.1(+) with ZEOCIN® resistance vector (INVITROGEN®) by NheI and NotI restriction enzyme sites. HEK 293T cells were obtained from ATCC and were transiently transfected at 80% confluency using Lipofectamine 3000 (Invitrogen). Selection for KLB-expressing cells was initiated 48 hours post-transfection in the growth media containing 100 μg/ml of ZEOCIN® (Gibco) and continued for 4 weeks with fresh media added every third day. Human KLB expression in pooled cells was confirmed by Western blot and a functional FGF21 MAPK phosphorylation assay.
293 HEK cells expressing hKLB were plated to 90% confluency in 96 well plates coated with poly-D-Lysine. Cells were serum starved for three hours in 0.1% BSA containing media prior to stimulation with protein and/or an antagonist peptide for ten minutes at 37° C. The cell lysate was used for the detection of phospho-Erk1/2 levels by AlphaSureFire kit using the prescribed protocol. The degree of biochemical activation was recorded and analyzed using Origin software by logistic curve fitting. Tests at each concentration were done in triplicates, and the standard deviation is as shown in the graphs. The calculation of maximal activities was done keeping the FGF21 157-181 or FGF19 169-194 peptide activity as standard. The difference between the Erk1/2 phosphorylation signal for the highest (10 μM) and the lowest (0 μM) tested dose for native peptide was considered as 100% and accordingly all the other values were assigned.

Setting [1] is: FIG. 8A, substitutions at terminal position of FGF19 169-194 peptide.
Setting [2] is: Table 5, FGF19/FGF21 chimeric peptides.
[3] abbreviates: Table 1, alanine scan of FGF21 25mer, antagonism of native FGF21 response.
Setting [4] is: FIG. 8B, FGF21 and FGF19 C-terminal peptides.
[5] abbreviates: Table 6, derivatives of SEQ ID NO: 180.

Non-standard residues stand in square brackets, D forms with d. Residues, ends and D or L forms follow the SMILES beside them. No end group written: not given here.

As for “FGF21 160-181: C-terminal fragment of FGF21 described as 24-amino acid (VGSSDPLSMVGPSQGRSPSYAS; UniProt Q9NSA1 188-209, looked up, fragment) [reference compound]”, the “antagonism of FGF21 activity (in words)” value was “dramatically improved its antagonistic potential”.
Take “PPDVASSDPLSMVGPSQGRSPSYAS-NH2 (C-terminus assumed) [Peptide A5, PPDVASSDPLSMVGPSQGRSPSYAS]”: the “% max activity” value is given as 102.5%.
On to “PLETDSMDPFGLVTGLEAVRSPSFEL-NH2 (C-terminus assumed) [Peptide K194L]”, for which the IC50 under setting [1] worked out at 17.3 nM.
With `CSCC[C@H](NC(=O)[C@H](CO)NC(=O)[C@H](CC(C)C)NC(=O)[C@@H]1CCCN1C(=O)[C@H](CC(=O)O)NC(=O)[C@H](CO)NC(=O)[C@H](CO)NC(=O)CNC(=O)[C@@H](NC(=O)[C@H](CC(=O)O)NC(=O)[C@@H]1CCCN1C(=O)[C@@H]1CCCN1)C(C)C)C(=O)N[C@H](C(=O)NCC(=O)N1CCC[C@H]1C(=O)N[C@@H](CO)C(=O)N[C@@H](CCC(N)=O)C(=O)NCC(=O)N[C@@H](CCCNC(=N)N)C(=O)N[C@@H](CO)C(=O)N1CCC[C@@H]1C(=O)N[C@@H](CO)C(=O)N[C@@H](Cc1ccc(O)cc1)C(=O)N[C@@H](C)C(=O)N[C@@H](CO)C(N)=O)C(C)C` [d21, PPDVG SSDPL SMVGP SQGRS pSYAS] (H-PPDVGSSDPLSMVGPSQGRS[dP]SYAS-NH2; N-terminus and C-terminus assumed), the “% Activity vs C25” value (Table 3, D-amino acid scan, C25 = 100) came to 3.80 ± 0.87%.
For the compound “PPDVGSSDPLSMAGPSQGRSPSYAS-NH2 (C-terminus assumed) [Peptide A13, PPDVGSSDPLSMAGPSQGRSPSYAS]”, the Emax came out at 87.9%.
“PLETDSSDPLSMVTGLEAVRSPSYAA-NH2 (C-terminus assumed) [Peptide 0434]” yielded a 50% inhibitory concentration (IC50) under setting [2] of 264 ± 78.8 nM.
As for “PPDVGSSDPLSMVGPSAGRSPSYAS-NH2 (C-terminus assumed) [Peptide A17, PPDVGSSDPLSMVGPSAGRSPSYAS]”, the “% max activity” value came out at 99.7%. The IC50 under setting [3] was 139 nM. Further, the IC50 (Table 2(A), FGF21 157-181 alanine mutants, ≥95% maximal activity) came out at 130 nM.
Consider “PPAVGSSDPLSMVGPSQGRSPSYAS-NH2 (C-terminus assumed) [Peptide A3, PPAVGSSDPLSMVGPSQGRSPSYAS]”, for which the Emax was 87.8%.
On to “PLETDSMDPFGLVTGLEAVRSPSFEA-NH2 (C-terminus assumed) [FGF19 A25]”, for which the IC50 runs as follows: under setting [1], 10.5 nM; under setting [4], 0.5 nM; under setting [2], 19.1 ± 1.5 nM.
As for “PPDVGSSDPLSMVGPSQGRSPSYAA-NH2 (C-terminus assumed) [Peptide A25, PPDVGSSDPLSMVGPSQGRSPSYAA]”, the “% max activity” value stood at 99.0%.
Turning to “FGF21 159-181: 23-amino acid C-terminal fragment of FGF21 (DVGSSDPLSMVGPSQGRSPSYAS; UniProt Q9NSA1 187-209, looked up, fragment) [reference compound]”, the “antagonism of FGF21 activity (in words)” value is given as “weak antagonism”.
Take “PPDVGSSDPLSMVGPSQGRAPSYAS-NH2 (C-terminus assumed) [Peptide A20, PPDVGSSDPLSMVGPSQGRAPSYAS]”: the Emax worked out at 73.5%.
As to “PLETDSMDPFGLVTGLEAVRSPSFEK-NH2 (C-terminus assumed) [FGF19 WT, reference compound]”, the half-inhibitory concentration (IC50) was 50 nM under setting [4] and 270 ± 90 nM (Table 2(A), FGF19 169-194 alanine mutants, ≥95% maximal activity).
`CSCC[C@H](NC(=O)[C@H](CO)NC(=O)[C@H](CC(C)C)NC(=O)[C@@H]1CCCN1C(=O)[C@H](CC(=O)O)NC(=O)[C@H](CO)NC(=O)[C@H](CO)NC(=O)CNC(=O)[C@@H](NC(=O)[C@H](CC(=O)O)NC(=O)[C@@H]1CCCN1C(=O)[C@@H]1CCCN1)C(C)C)C(=O)N[C@H](C(=O)NCC(=O)N1CCC[C@H]1C(=O)N[C@@H](CO)C(=O)N[C@@H](CCC(N)=O)C(=O)NCC(=O)N[C@@H](CCCNC(=N)N)C(=O)N[C@@H](CO)C(=O)N1CCC[C@H]1C(=O)N[C@@H](CO)C(=O)N[C@@H](Cc1ccc(O)cc1)C(=O)N[C@@H](C)C(=O)N[C@H](CO)C(N)=O)C(C)C` [d25, PPDVG SSDPL SMVGP SQGRS PSYAs] (H-PPDVGSSDPLSMVGPSQGRSPSYA[dS]-NH2; N-terminus and C-terminus assumed) returned an IC50 (Table 3, D-amino acid scan of FGF21 C-terminal 25mer) of 264 ± 120 nM.
Consider “APDVGSSDPLSMVGPSQGRSPSYAS-NH2 (C-terminus assumed) [Peptide A1, APDVGSSDPLSMVGPSQGRSPSYAS]”, for which the Emax worked out at 100%.
Regarding “PPDVGSSDPFGLVGPSQGRSPSFEA-NH2 (C-terminus assumed) [Peptide 0486]”, inhibition under setting [5] was half-maximal at 4.7 ± 1.6 nM (IC50).
For “PLETDSMDPFGLVTGLEAVRSPSFEE-NH2 (C-terminus assumed) [Peptide K194E]”, the IC50 under setting [1] was 87.9 nM. This counts as double-digit nanomolar.
For the compound “PPDVGSADPLSMVGPSQGRSPSYAS-NH2 (C-terminus assumed) [Peptide A7, PPDVGSADPLSMVGPSQGRSPSYAS]”, the Emax was determined as 94.5%.
Take “PPDVGSSDPLSMVGPSQGRSPSAAS-NH2 (C-terminus assumed) [Peptide A23, PPDVGSSDPLSMVGPSQGRSPSAAS]”: the “% max activity” value is given as 73.6%.
Turning to “PPDVGASDPLSMVGPSQGRSPSYAS-NH2 (C-terminus assumed) [Peptide A6, PPDVGASDPLSMVGPSQGRSPSYAS]”, the Emax is 89.2%.
Under setting [2], “PPDVGSMDPFGLVTGLEAVRSPSYAA-NH2 (C-terminus assumed) [Peptide 0433]” came in with an IC50 of 10.7 ± 0.7 nM.
For “PLETDSMDPFGLVTGLEAVRSPSFES-NH2 (C-terminus assumed) [Peptide K194S]”, 22.3 nM corresponded to half-maximal inhibition under setting [1] (IC50).
In the case of “PPDVGSSDPASMVGPSQGRSPSYAS-NH2 (C-terminus assumed) [Peptide A10, PPDVGSSDPASMVGPSQGRSPSYAS]”, the Emax was 76%.
Regarding “PPDVSSMDPFGLVGPSQGRSPSFEA-NH2 (C-terminus assumed) [Peptide 0482]”, half-maximal inhibition under setting [5] (IC50) required 3 ± 1.3 nM.
Consider “PPDAGSSDPLSMVGPSQGRSPSYAS-NH2 (C-terminus assumed) [Peptide A4, PPDAGSSDPLSMVGPSQGRSPSYAS]”, for which the Emax is 63.6%.
Consider “FGF21 162-181: C-terminal fragment of FGF21, residues 162-181 (SSDPLSMVGPSQGRSPSYAS) [reference compound]”, for which the “antagonism of FGF21 activity (in words)” value was “non-functional”.
The same measure, in the same setting: the result for “FGF19 (amino acids 165-194): C-terminal peptide of FGF19, amino acids 165-194 (FLPMLPMVPEEPEDLRGHLESDMFSSPLET) [reference compound]” reads “exhibit antagonism to FGF21 activity”.
Turning to “PPDVGSSDPLSMVGPSQGRSASYAS-NH2 (C-terminus assumed) [Peptide A21, PPDVGSSDPLSMVGPSQGRSASYAS]”, the Emax is 70.5%.
Regarding “PPDVGSSDPLSMVGPSQGASPSYAS-NH2 (C-terminus assumed) [Peptide A19, PPDVGSSDPLSMVGPSQGASPSYAS]”, the Emax turned out to be 100%. It took 102 nM to reach half-maximal inhibition under setting [3] (IC50).
For the compound “PPDVGSMDPFGLVGPSQGRSPSFEA-NH2 (C-terminus assumed) [Peptide 0431]”, the IC50 is, setting by setting: under setting [2], 4.1 ± 0.1 nM; under setting [5], 7.1 ± 3 nM.

What is called IC50 is the concentration needed to halve the response being measured. Low readings indicate higher potency, high ones lower potency.

For the origin of these results see patent US11351268B2, “FGF21 C-terminal peptide optimization” (INDIANA UNIVERSITY RESEARCH AND TECHNOLOGY CORPORATION, priority 2016, dated 2022).
